Several values for one entry are separate records, joined by “and”; a condition that tells them apart may be missing. Identical values can stand only once.
Tests used:
[1] = test system: gastrointestinal nematodes; assay: Sheep Test I: nematode recovery at necropsy, controlled anthelmintic test efficacy; assay type: in vivo; settings: for Mean Ct, Abomasum Haemonchus / Mean Ct, Abomasum ostertagia / Mean Ct, Small Intest. Nematodirus / Mean Ct, Small Intestine Trichostrongylus: group mean; for Mean Ct, Abomasum Haemonchus / Mean Ct, Abomasum ostertagia / Mean Ct, Small Intest. Nematodirus / Mean Ct, Small Intestine Trichostrongylus / Worm Counts, Abomasum Haemonchus / Worm Counts, Abomasum ostertagia / Worm Counts, Small Intest. Nematodirus / Worm Counts, Small Intestine Trichostrongylus: necropsy seven days following treatment; for Worm Counts, Abomasum Haemonchus / Worm Counts, Abomasum ostertagia / Worm Counts, Small Intest. Nematodirus / Worm Counts, Small Intestine Trichostrongylus: individual sheep
Method: Sheep naturally infected with a variety of gastrointestinal nematodes are purchased from local sources and are transported to the test site. The animals are housed in a manner to preclude further infection by nematode larvae. The animals are evaluated for the presence of adequate nematode burdens by performing a standard fecal egg per gram (EPG) count. Eggs are differentiated into the following groups: trichostrongyle (strongyle), Strongyloides, Trichuris, or Nematodinis. Only sheep judged by the study parasitologist to have adequate nematode infections are retained as test subjects. The sheep are fed good quality hay (no concentrated rations) and water ad libitum. Following a five-day acclimation period, the sheep are randomly assigned by EPG count into treatment groups which include non-treated Negative control (placebo); […] The first replicate of 10 animals is randomly assigned to groups 1-10; the second replicate of 10 animals is randomly assigned to groups 1-10; and the third replicate of 10 animals is randomly assigned to groups 1-10. Thus 10 groups of 3 animals each is created. The placebo (DMSO), the commercially available drug, and the test anthelmintic compounds are administered in a 3 ml volume by subcutaneous injection using a sterile syringe fitted with a proper needle. The animal is adequately immobilized for injection of the placebo, commercially available drug, or test anthelmintic compound. Seven days following treatment the sheep are humanely slaughtered in accordance with the Guide for the Care and Use of Laboratory Animals (DHEW Publication No. 86-23). Necropsy procedures are according to Zimmerman Research SOP # […].99.01, Necropsy for Helminth Recovery, specifically for gastrointestinal nematodes. Fecal samples are taken for EPG counts during the sample collection process on this day. All animals are necropsied, but only the animals from the experimental treatment groups that have a significant egg count reduction on day 5 or day 7 will have intestinal material collected for nematode recovery and identification. Nematodes are recovered, identified, and enumerated according to Zimmerman Research SOP # […].99.01. All individuals performing nematode recoveries are blinded to treatment versus control animals. Preliminary estimates of total nematodes recovered from each gut sample are provided prior to identification and enumerations by the study parasitologist. At the discretion of the study parasitologist, seven days after the drug administration fecal egg counts are performed and all animals showing 90% or better trichostrongylid egg reduction will be slaughtered using humane methods recommended by the AVMA. The neck blood vessels are severed and after the animal is completely exsanguinated, the abdomen are opened. The abomasum, the small and large intestines are tied at the omasal and pyloric openings, the duodenum, the end of the small intestine and at the end of the large intestine. Each section is transferred in a separate bucket containing warm water and is slit open and thoroughly washed. The epithelium is inspected before it is removed. The thus prepared washings are saved in gallon jars. An appropriate preservative is added. If preservative is not available, all the intestinal washing should kept in a refrigerator. These washings are passed through a 100-mesh sieve (pore size […]), and the residue is examined for the presence of worms under a dissecting microscope, Lugol's solution may be used to stain the worms. All worms are picked up counted and identified as to the species. An effort should be made to recover any immature forms present.

[2] = test system: gastrointestinal nematodes (trichostrongyle, Strongyloides, Trichuris, Nematodirus eggs); assay: Sheep Test I: fecal egg per gram (EPG) counts; assay type: in vivo; settings: for % Change, Strongyles EPG-5 day vs EPG-pre, Total/Mean / Strongyles EPG-5 day (22-Jan), Total/Mean / % Change, Strongyles EPG-7 day vs EPG-pre, Total/Mean / Strongyles EPG-7 day (24-Jan), Total/Mean: group mean; for % Change, Strongyles EPG-5 day vs EPG-pre, Total/Mean / Strongyles EPG-5 day (22-Jan), Total/Mean / Strongyles EPG-5 day (22-Jan): 5 days after treatment; for % Change, Strongyles EPG-7 day vs EPG-pre, Total/Mean / Strongyles EPG-7 day (24-Jan), Total/Mean / % Change, Strongyles EPG-7 day vs EPG-pre / Strongyles EPG-7 day (24-Jan): 7 days after treatment; for Strongyles EPG-5 day (22-Jan) / % Change, Strongyles EPG-7 day vs EPG-pre / Strongyles EPG-7 day (24-Jan): individual sheep
Method: Sheep naturally infected with a variety of gastrointestinal nematodes are purchased from local sources and are transported to the test site. The animals are housed in a manner to preclude further infection by nematode larvae. The animals are evaluated for the presence of adequate nematode burdens by performing a standard fecal egg per gram (EPG) count. Eggs are differentiated into the following groups: trichostrongyle (strongyle), Strongyloides, Trichuris, or Nematodinis. Only sheep judged by the study parasitologist to have adequate nematode infections are retained as test subjects.
The sheep are fed good quality hay (no concentrated rations) and water ad libitum. Following a five-day acclimation period, the sheep are randomly assigned by EPG count into treatment groups which include non-treated Negative control (placebo); Positive Control (commercially available ivermectin for sheep): and various anthelmintic compounds of the present invention (test compound) dissolved in DMSO. The first replicate of 10 animals is randomly assigned to groups 1-10; the second replicate of 10 animals is randomly assigned to groups 1-10; and the third replicate of 10 animals is randomly assigned to groups 1-10. Thus 10 groups of 3 animals each is created.
The randomization is performed on fecal samples collected 24-48 hours prior to scheduled treatment. The EPG counts are performed according to Zimmerman Research SOP # NMEPG.99.01
On treatment day, the animals are weighed and divided into groups with three animals per group as follows:
The placebo (DMSO), the commercially available drug, and the test anthelmintic compounds are administered in a 3 ml volume by subcutaneous injection using a sterile syringe fitted with a proper needle. The animal is adequately immobilized for injection of the placebo, commercially available drug, or test anthelmintic compound.
Following treatment, the animals are observed at hourly intervals for the first 8 hours, then daily until necropsy. They will continue to be housed in a manner to prevent further nematode infections. Fecal samples are taken for EPG counts on the 5th day and 7th day after treatment.
Seven days following treatment the sheep are humanely slaughtered in accordance with the Guide for the Care and Use of Laboratory Animals (DHEW Publication No. 86-23). Necropsy procedures are according to Zimmerman Research SOP # NCRGIH.99.01, Necropsy for Helminth Recovery, specifically for gastrointestinal nematodes. Fecal samples are taken for EPG counts during the sample collection process on this day. All animals are necropsied, but only the animals from the experimental treatment groups that have a significant egg count reduction on day 5 or day 7 will have intestinal material collected for nematode recovery and identification.

[3] = Ivermectin 200 mcg/kg, vs negative control mean count
[4] = AKC 109 1.4 mg/kg, vs negative control mean count

Molecule: 22,23-dihydroavermectin B1 [ivermectin]
- % Efficacy, Abomasum Haemonchus [1, 3]: 100%
- % Efficacy, Abomasum ostertagia [1, 3]: 100%
- % Efficacy, Small Intest. Nematodirus [1, 3]: 100%
- % Efficacy, Small Intestine Trichostrongylus [1, 3]: 100%
- Mean Ct, Abomasum Haemonchus ([1]; Ivermectin 200 mcg/kg): 0
- Mean Ct, Abomasum ostertagia ([1]; Ivermectin 200 mcg/kg): 0
- Mean Ct, Small Intest. Nematodirus ([1]; Ivermectin 200 mcg/kg): 0
- Mean Ct, Small Intestine Trichostrongylus ([1]; Ivermectin 200 mcg/kg): 0
- Worm Counts, Abomasum Haemonchus ([1]; Ivermectin 200 mcg/kg): 0
- Worm Counts, Abomasum ostertagia ([1]; Ivermectin 200 mcg/kg): 0
- Worm Counts, Small Intest. Nematodirus ([1]; Ivermectin 200 mcg/kg): 0
- Worm Counts, Small Intestine Trichostrongylus ([1]; Ivermectin 200 mcg/kg): 0
- % Change, Strongyles EPG-5 day vs EPG-pre, Total/Mean ([2]; Ivermectin .2 mg/kg): 99.62%
- Strongyles EPG-5 day (22-Jan), Total/Mean ([2]; Ivermectin .2 mg/kg): 3.33 EPG
- % Change, Strongyles EPG-7 day vs EPG-pre, Total/Mean ([2]; Ivermectin .2 mg/kg): 100.00%
- Strongyles EPG-7 day (24-Jan), Total/Mean ([2]; Ivermectin .2 mg/kg): 0.00 EPG
- Strongyles EPG-5 day (22-Jan) ([2]; Ivermectin .2 mg/kg): 10 EPG and 0 EPG (2×)
- % Change, Strongyles EPG-7 day vs EPG-pre ([2]; Ivermectin .2 mg/kg): 100.00%
- Strongyles EPG-7 day (24-Jan) ([2]; Ivermectin .2 mg/kg): 0 EPG

Molecule: CCC1CCCCN1c1cc(Oc2ccc3oc4ccccc4c3c2)ncn1 (stereo not drawn) [AKC 109]
- % Efficacy, Abomasum ostertagia [1, 4]: 98%
- % Efficacy, Small Intest. Nematodirus [1, 4]: 57%
- Mean Ct, Abomasum Haemonchus ([1]; AKC 109 1.4 mg/kg): 507
- Mean Ct, Abomasum ostertagia ([1]; AKC 109 1.4 mg/kg): 7
- Mean Ct, Small Intest. Nematodirus ([1]; AKC 109 1.4 mg/kg): 353
- Mean Ct, Small Intestine Trichostrongylus ([1]; AKC 109 1.4 mg/kg): 233
- Worm Counts, Abomasum Haemonchus ([1]; AKC 109 1.4 mg/kg, 1.4 mg/kg): 20 and 1500 and 0
- Worm Counts, Abomasum ostertagia ([1]; AKC 109 1.4 mg/kg, 1.4 mg/kg): 20 and 0 (2×)
- Worm Counts, Small Intest. Nematodirus ([1]; AKC 109 1.4 mg/kg, 1.4 mg/kg): 100 and 500 and 460
- Worm Counts, Small Intestine Trichostrongylus ([1]; AKC 109 1.4 mg/kg, 1.4 mg/kg): 540 and 160 and 0
- % Change, Strongyles EPG-5 day vs EPG-pre, Total/Mean ([2]; AKC 109 1.4 mg/kg): 76.43%
- Strongyles EPG-5 day (22-Jan), Total/Mean ([2]; AKC 109 1.4 mg/kg): 206.67 EPG
- % Change, Strongyles EPG-7 day vs EPG-pre, Total/Mean ([2]; AKC 109 1.4 mg/kg): 85.55%
- Strongyles EPG-7 day (24-Jan), Total/Mean ([2]; AKC 109 1.4 mg/kg): 126.67 EPG
- Strongyles EPG-5 day (22-Jan) ([2]; AKC 109 1.4 mg/kg, 1.4 mg/kg): 30 EPG and 590 EPG and 0 EPG
- % Change, Strongyles EPG-7 day vs EPG-pre ([2]; AKC 109 1.4 mg/kg, 1.4 mg/kg): 84.30% and −195.00% and 100.00%
- Strongyles EPG-7 day (24-Jan) ([2]; AKC 109 1.4 mg/kg, 1.4 mg/kg): 380 EPG and 0 EPG

Reference: patent US20010049373A1, “Materials and methods for killing nematodes and nematode eggs” (priority 2000, published 2001)
